The nature of data set [1]: Effect of SLS concentration on apparent solubility (Example 10). Format: physicochemical. Conditions: VX-950 (95% L/5% D). As for the experimental part: The effect of SLS concentration on the apparent solubility of VX-950 solid dispersions were tested.
The format of data set [2] is physicochemical. From the text: The manufacture of an amorphous solid dispersion containing VX-950 presented several challenges. […] Therefore, an appropriate solvent or solvent mixture is crucial to optimizing the processing and production of a solid dispersion.
The next data set can be described thus: in vivo. Conditions: rat, po.

`CCC[C@H](NC(=O)[C@@H]1[C@H]2CCC[C@H]2CN1C(=O)[C@@H](NC(=O)[C@@H](NC(=O)c1cnccn1)C1CCCCC1)C(C)(C)C)C(=O)C(=O)NC1CC1` [No Excipients]: the “% dissolved in water @ 5 min.” value in data set [1] is on record as 2.7%.

Broadly, the bioavailability is the share of a dose that reaches the circulation, judged against a reference dose that is usually intravenous. Low values mean poor availability, high ones good availability. Regarding `CCC[C@H](NC(=O)[C@@H]1[C@H]2CCC[C@H]2CN1C(=O)[C@@H](NC(=O)[C@@H](NC(=O)c1cnccn1)C1CCCCC1)C(C)(C)C)C(=O)C(=O)NC1CC1` [VX-950], in data set [2], the aqueous solubility result is listed as “virtually undetectable”, the “pH dependence of aqueous solubility” value is on record as “not pH-dependent” and the solubility in water result was “highly insoluble”. In the data set “in vivo”, this compound came in with a bioavailability below 0.5%.
